Reference: patent US7655800B2, “Crystalline 1H-imidazo[4,5-b]pyridin-5-amine, 7-[5-[(cyclohexylmethylamino)-methyl]-1H-indol-2-yl]-2-methyl, sulfate (1:1), trihydrate and its pharmaceutical uses” (Eisai R & D Management Co., Ltd., priority 2005, dated 2010)
Counter-ions that a name gives are not always drawn.

Tests used:
Assay type in all cases: physicochemical
[1] = Physical stability of crystalline E6070 under stressed storage (XRD, TG-DTA)
Procedure: Crystalline E6070 was placed on the sample platform of an X-ray powder diffractometer (RINT-2000, Rigaku, Japan) and analyzed under the conditions shown in Table 3.
Thermal Analyses: Using a Rigaku Thermoflex TAS20 TG8101D (Rigaku, Tokyo, Japan) therogravimetric-differential thermal analyses (TG-DTA) were performed under the measurement conditions in Table 9. The temperature axis and the cell constant were calibrated with indium. The solid sample (1-5 mg) was accurately weighed into an open aluminum pan and then heated.
The physical stability of crystalline E6070 was evaluated under the following two conditions: 60° C. for a month and 40° C./75% RH (open) for a month.

[2] = Hygroscopicity measurements (controlled-atmosphere microbalance, adsorption/desorption isotherm); details: for hygroscopicity: general statement, in words
Procedure: Hygroscopicity Measurements: Samples were exposed to various relative humidity (RH) conditions at 25° C. using an automated controlled-atmosphere microbalance, MB-300W (VTI Corporation, FL, USA). In this system, a sample was suspended in an isothermal chamber at 25° C., and the RH was regulated from 5% to 95% by adjusting the relative flow rates of dry (0% RH) and moist (100% RH) nitrogen. The weight of the sample was measured every 2 min with the microbalance. The weight stability criterion employed for the equilibrium was that the maximum weight change for each measurement was less than 0.2% (w/w).

[3] = Solubility in water of amorphous versus crystalline E6070; details: in words
[4] = 40° C./75% RH (open) for a month

TG-DTA thermogram after storage compared with initial [1, 4]: same TG-DTA thermogram as the initial
change in XRD pattern after storage [1, 4]: no change
TG-DTA thermogram after storage compared with initial ([1]; 60° C. for a month): same TG-DTA thermogram as the initial
change in XRD pattern after storage ([1]; 60° C. for a month): no change
physical stability in the solid state (conclusion) ([1]; both stressed conditions, one month): physically stable in the solid state
hygroscopicity ([2]; listed as Crystalline E6070, trihydrate): very low hygroscopicity
hygroscopicity ([2]; trihydrate): non-hygroscopic
solubility in water [3]: much less soluble in water
Compound: Cc1nc2nc(N)cc(-c3cc4cc(CN(C)C5CCCCC5)ccc4[nH]3)c2[nH]1 [crystalline E6070, 1H-imidazo[4,5-b]pyridin-5-amine, 7-[5-[(cyclohexylmethylamino)-methyl]-1H-indol-2-yl]-2-methyl, sulfate (1:1), trihydrate]
moisture uptake or loss on exposure to controlled humidities ([2]; from 0% to 93% RH at 25° C.): not found to take up or lose any moisture
